Patent EP0604248A1, “Use of 5-methoxypsoralen for the treatment of AIDS” (Goupil, Jean-Jacques, priority 1992, dated 1994)

Assays:
VIH-1 [1] = experiment: Residual infectivity of treated HIV-1 on primary cultures of activated human lymphocytes (reverse transcriptase activity in supernatants, 28 days); format: cell-based; conditions: for log reduction at 10 µg/mL: Human immunodeficiency virus 1, Lymphocyte, light or radiation study
Description: (§1) Cette étude a été réalisée en 2 étapes : • traitements du virus VIH-1 (ou HIV-1) par le 5-méthoxypsoralène (5-MOP) et les UVA. • étude de l'infectivité résiduelle des échantillons traités à l'aide des tests sur cellules MT4 et sur lymphocytes activés.
(§2) Le virus a été traité par 10 µg/ml de 5-MOP, puis exposé aux UVA (1 à 2 Joules/cm²) de la façon suivante: • 4 ml de virus VIH-1 ont été traités avec 40 µl de 5-MOP à 1 mg/ml puis exposés aux UVA (intensité de 1,5 mW/cm²) pendant 17 minutes (échantillon PUV 10), • l'irradiation aux UVA a été faite avec la lampe PUVA 200 WALDMANN en déposant les flacons contenant le virus sur un lit de glace, afin d'éviter au maximum l'échauffement.
(§3) Les témoins pour cette expérience ont été les suivants : • le virus VIH-1 utilisé, non traité (échantillon PUV 1), • 4 ml du virus utilisé, traité uniquement par 40 µl de DMSO, afin de vérifier une éventuelle toxicité due au DMSO (échantillon PUV 2), • le virus utilisé, traité avec 10 µg/ml de 5-MOP, mais sans irradiation UVA (échantillon PUV 6), • le virus utilisé, traité uniquement par irradiation UVA pendant 17 minutes à 1,5 mW/cm² (échantillon PUV 5), • le virus utilisé, sans traitement, gardé à la température de l'expérience, pendant toute la durée du traitement, afin de vérifier la perte d'infectivité due aux conditions de la manipulation (échantillon PUV 9).
• a - Sur cellules MT4 : Des dilutions successives de chaque échantillon ont été testées en duplicata. 100 µl de chaque dilution ont été mis en contact 1 heure à 37°C avec 3.10⁵ cellules MT4 par puits de plaque COSTAR 24 puits. Les cellules ont été centrifugées afin d'éliminer le produit éventuellement toxique, puis resuspendues dans 1 ml du milieu de culture. Aux jours 3 et 6, 750 µl de surnageant ont été ôtés, remplacés par du milieu de culture frais et la concentration cellulaire ajustée à 3.10⁵ cellules par millilitre. Au jour 10, l'effet cytopathogène et la mortalité cellulaire ont été évalués par observation au microscope après coloration au bleu Trypan. Des dosages de l'activité transcriptase inverse ont été réalisés à partir des surnageants de culture conservés à chaque passage (jours 3, 6 et 10). • b - Sur lymphocytes humains activés : Un culot de 3.10⁶ lymphocytes préalablement stimulés à la PHA a été incubé avec 1 ml de chaque échantillon (de 10⁻¹ à 10⁻⁵ pour chaque échantillon, sauf pour l'échantillon PUV10 testé également non dilué) pendant 1 heure à 37°C. Puis les cellules ont été centrifugées et resuspendues à 10⁶ cellules par millilitre dans du milieu complet. Tous les 3 ou 4 jours, les cellules ont été comptées, réensemencées à 10⁶ cellules/ml et les surnageants conservés à -80°C. […]

VIH-1 [2] = experiment: Residual infectivity of treated HIV-1 on MT4 cells (cytopathic effect, p25 antigen, reverse transcriptase activity); format: cell-based; conditions: Human immunodeficiency virus 1, light or radiation study
Description: as §1, §2
as §3, with “9). […]” for “9).”

With COc1c2ccoc2cc2oc(=O)ccc12 [5-MOP, 5-méthoxypsoralène] the “réduction du pouvoir infectieux du virus” value (VIH-1 [1]; 5-MOP seul, no UVA (control treatment), overall conclusion) was “sans effet”, the titre (VIH-1 [1]; 5-MOP à 10 µg/ml et UVA (sample PUV10), activated human lymphocytes (PBL)) was 100 UI/ml and the log reduction at 10 µg/mL (VIH-1 [1]; 5-MOP à 10 µg/ml et UVA (sample PUV10, tested undiluted), activated human lymphocytes (PBL), read-out: inactivation virale) was 3. For the same compound, the log reduction at 10 µg/mL (VIH-1 [1]; 5-MOP à 10 µg/ml et UVA, overall conclusion, read-out: réduction du pouvoir infectieux du virus) was about 3, the log reduction at 10 µg/mL (VIH-1 [2]; 5-MOP seul à 10 µg/ml, no UVA (sample PUV6), versus control PUV9, read-out: perte d'infectivité) was 0.5 and the log reduction at 10 µg/mL (VIH-1 [2]; 5-MOP à 10 µg/ml et UVA (sample PUV10), versus control PUV9, read-out: réduction du titre infectieux) was 2.5.
